Reference: ChEMBL document CHEMBL3714766, “Tetrahydroisoquinoline compounds and their use as pyruvate dehydrogenase kinase inhibitors” (2015)

Molecular target: Pyruvate dehydrogenase kinase (Homo sapiens, UniProt Q15119+Q15120+Q16654+Q15118)
Assay: Binding affinity to pyruvate dehydrogenase kinase (unknown origin) by VER-00160364 probe based fluorescence polarization assay

Compound	IC50 [nM]
CC1CCc2cc(C(=O)N3Cc4ccccc4C3)ccc2N1C(=O)c1ccc(O)cc1O (centres undefined)	100
COc1ccc(CN(C)C(=O)c2ccc3c(c2)CCC(C)N3C(=O)c2ccc(O)cc2O)cc1OC (centres undefined)	100
CCOC(=O)CN(C)C(=O)c1ccc2c(c1)CCCN2C(=O)c1ccc(O)cc1O	1000
CC(c1cc2ccccc2o1)N(C)C(=O)c1ccc2c(c1)CCC(C)N2C(=O)c1ccc(O)cc1O (centres undefined)	100
Cn1ccnc1-c1ccc2c(c1)CCCN2C(=O)c1ccc(O)cc1O	1000
CC1CCc2cc(-c3nccn3C)ccc2N1C(=O)c1cc(Cl)c(O)cc1O (centres undefined)	1000
COc1ccc(CN(C)C(=O)c2ccc3c(c2)CCC(C)N3C(=O)c2ccc(O)cc2O)cc1 (centres undefined)	10
O=C(c1ccc(O)cc1O)N1CCCc2cc(OCc3ccccc3)ccc21	10000
CC1CCc2cc(-c3ncccc3C(F)(F)F)ccc2N1C(=O)c1cc(Cl)c(O)cc1O (centres undefined)	1000
COc1ccccc1CN(C)C(=O)c1ccc2c(c1)CCC(C)N2C(=O)c1ccc(O)cc1O (centres undefined)	100
CN(CCNC(=O)OC(C)(C)C)C(=O)c1ccc2c(c1)CCCN2C(=O)c1ccc(O)cc1O	1000
Cc1cccnc1-c1ccc2c(c1)CC[C@@H](C)N2C(=O)c1ccc(O)cc1O	10000
CC1CCc2cc(C(=O)N(C)Cc3cc4ccccc4[nH]3)ccc2N1C(=O)c1ccc(O)cc1O (centres undefined)	100
Cc1nc(C)c(-c2ccc3c(c2)CCC(C)N3C(=O)c2ccc(O)cc2O)s1 (centres undefined)	10
C[C@H]1CCc2cc(-c3ncccc3Cl)ccc2N1C(=O)c1ccc(O)cc1O	100
Cc1cccnc1-c1ccc2c(c1)CCCN2C(=O)c1ccc(O)cc1O	1000
Cc1cn(C)c(-c2ccc3c(c2)CCC(C)N3C(=O)c2cc(Cl)c(O)cc2O)n1 (centres undefined)	1000
C[C@H]1CCc2cc(C(=O)N(C)Cc3ccnc4ccccc34)ccc2N1C(=O)c1ccc(O)cc1O	10
C[C@H]1CCc2cc(C(=O)N(C)C)ccc2N1C(=O)c1ccc(O)cc1O	100
Cc1cccnc1-c1ccc2c(c1)CCCN2C(=O)c1cc(C(F)(F)F)c(O)cc1O	10000
C[C@H]1CCc2cc(C(=O)N(C)Cc3ccc(Cl)cc3)ccc2N1C(=O)c1ccc(O)cc1O	100
Cc1cccnc1-c1ccc2c(c1)CC[C@H](C)N2C(=O)c1ccc(O)cc1O	100
CN(CC(F)(F)F)C(=O)c1ccc2c(c1)CCCN2C(=O)c1ccc(O)cc1O	1000
Cc1ccnnc1-c1ccc2c(c1)CC[C@H](C)N2C(=O)c1ccc(O)cc1O	100
CC1CCc2cc(C(=O)N(C)Cc3ccc(Cl)c(Cl)c3)ccc2N1C(=O)c1ccc(O)cc1O (centres undefined)	100

Compound	IC50 [nM]
C[C@H]1CCc2cc(C(=O)N3CCN(C(=O)OC(C)(C)C)CC3)ccc2N1C(=O)c1ccc(O)cc1O	1000
Cc1cccnc1-c1ccc2c(c1)CCC(C)N2C(=O)c1ccc(O)cc1O (centres undefined)	100
CC1CCc2cc(C(=O)N(C)Cc3cnn(C)c3)ccc2N1C(=O)c1ccc(O)cc1O (centres undefined)	100
C[C@H]1CCc2cc(-c3ncccc3C(F)(F)F)ccc2N1C(=O)c1ccc(O)cc1O	100
Cc1cnc(Cl)nc1-c1ccc2c(c1)CC[C@@H](C)N2C(=O)c1ccc(O)cc1O	10000
CC1CCc2cc(-c3ncccc3Cl)ccc2N1C(=O)c1cc(Cl)c(O)cc1O (centres undefined)	1000
O=C(c1ccc2c(c1)CCCN2C(=O)c1ccc(O)cc1O)N1CCc2ccccc21	100
CC1CCc2cc(C(=O)N(C)C)ccc2N1C(=O)c1ccc(O)cc1O (centres undefined)	100
CC1CCc2cc(C(=O)N(C)Cc3nc4ccccc4s3)ccc2N1C(=O)c1ccc(O)cc1O (centres undefined)	100
O=C(c1ccc2c(c1)CCCN2C(=O)c1ccc(O)cc1O)N1CCCCC1	100
Cc1nc(C)c(-c2ccc3c(c2)CCC(C)N3C(=O)c2cc(Cl)c(O)cc2O)s1 (centres undefined)	1000
O=C(c1ccc(O)cc1O)N1CCCc2cc(Br)ccc21	1000
C[C@H]1CCc2ccccc2N1C(=O)c1cc(Cl)c(O)cc1O	100
C[C@H]1CCc2cc(-c3ncccc3C#N)ccc2N1C(=O)c1ccc(O)cc1O	100
C[C@@H]1CCc2cc(C(=O)N(C)C)ccc2N1C(=O)c1ccc(O)cc1O	10000
CC1CCc2cc(C(=O)N(C)Cc3nc4ccccc4[nH]3)ccc2N1C(=O)c1ccc(O)cc1O (centres undefined)	100
CC1CCc2cc(C(=O)N3CCCCC3)ccc2N1C(=O)c1ccc(O)cc1O (centres undefined)	100
Cc1cccnc1-c1ccc2c(c1)CCC(C)N2C(=O)c1cc(Cl)c(O)cc1O (centres undefined)	100
CN(Cc1ccccn1)C(=O)c1ccc2c(c1)CCCN2C(=O)c1ccc(O)cc1O	1000
CC1CCc2cc(C(=O)N(C)Cc3cc4cc(F)ccc4[nH]3)ccc2N1C(=O)c1ccc(O)cc1O (centres undefined)	100
Cc1cnc(NC(C)C)nc1-c1ccc2c(c1)CC[C@H](C)N2C(=O)c1ccc(O)cc1O	100
CC1CCc2cc(-c3ncccc3C#N)ccc2N1C(=O)c1cc(Cl)c(O)cc1O (centres undefined)	1000
C[C@H]1CCc2cc(C(=O)N(C)Cc3cccc4c3ccc[n+]4C)ccc2N1C(=O)c1ccc(O)cc1O	100
CN(CC(=O)O)C(=O)c1ccc2c(c1)CCCN2C(=O)c1ccc(O)cc1O	1000
